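Exposure lasted 48 hours, with cells grown in 96-well plates and compounds tested at five concentrations. Abbreviation: GI50, concentration required for 50% inhibition of growth. TGI: total growth inhibition.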
Columns and labels:
Assay in all cases: NCI anticancer screen, dose series, 48 h
[1] = tested on: M14 melanoma
[2] = tested on: T-47D breast
[3] = tested on: SN12C renal
[4] = tested on: HOP-62 NSCLC
[5] = tested on: CCRF-CEM leukemia
[6] = tested on: KM12 colon
[7] = tested on: SK-OV-3 ovarian
[8] = tested on: SNB-19 CNS
[9] = tested on: HL-60(TB) leukemia
[10] = tested on: COLO 205 colon
[11] = tested on: HCT-15 colon
[12] = tested on: SW-620 colon
[13] = tested on: NCI-H460 lung
[14] = tested on: ACHN renal
[15] = tested on: IGROV1 ovarian
[16] = tested on: NCI-H226 lung
[17] = tested on: HOP-92 NSCLC
[18] = tested on: BT-549 breast
[19] = tested on: 786-0 renal
[20] = tested on: HCT-116 colon
[21] = tested on: OVCAR-8 ovarian
[22] = tested on: DU-145 prostate
[23] = tested on: MALME-3M melanoma
[24] = tested on: U251 CNS
[25] = tested on: SF-295 CNS
[26] = tested on: TK-10 renal
[27] = tested on: UACC-62 melanoma
[28] = tested on: MCF7 breast
[29] = tested on: OVCAR-5 ovarian

C#Cc1nc(/C=C/C(=O)c2nccn2C)cs1
TGI [1]: 1980 nM | GI50 [2]: 229 nM | TGI [2]: 1380 nM | GI50 [3]: 797 nM | TGI [3]: 1700 nM | GI50 [4]: 1050 nM | TGI [4]: 1960 nM | GI50 [5]: 149 nM | TGI [5]: 566 nM | GI50 [6]: 498 nM | TGI [6]: 1200 nM | GI50 [7]: 1180 nM | TGI [7]: 2440 nM | GI50 [8]: 812 nM | TGI [8]: 1550 nM | GI50 [9]: 167 nM | TGI [9]: 645 nM | GI50 [10]: 815 nM | TGI [10]: 1730 nM | GI50 [11]: 510 nM | TGI [11]: 1310 nM | GI50 [12]: 607 nM | TGI [12]: 1400 nM | GI50 [13]: 898 nM | TGI [13]: 2100 nM | GI50 [14]: 291 nM | TGI [14]: 794 nM | GI50 [15]: 105 nM | TGI [15]: 215 nM | GI50 [16]: 1490 nM | TGI [16]: 9130 nM | GI50 [17]: 1050 nM | TGI [17]: 1880 nM | GI50 [18]: 815 nM | TGI [18]: 1530 nM | GI50 [19]: 262 nM | TGI [19]: 623 nM | GI50 [20]: 456 nM | TGI [20]: 1220 nM | GI50 [21]: 1160 nM | TGI [21]: 4360 nM | GI50 [22]: 583 nM | TGI [22]: 1280 nM | GI50 [23]: 893 nM | TGI [23]: 1830 nM | GI50 [24]: 775 nM | TGI [24]: 1540 nM | GI50 [25]: 961 nM | TGI [25]: 1870 nM | GI50 [26]: 1170 nM | TGI [26]: 2120 nM | GI50 [27]: 715 nM | TGI [27]: 1460 nM | GI50 [28]: 537 nM | TGI [28]: 1940 nM | GI50 [29]: 859 nM | TGI [29]: 1600 nM

Source: PubChem BioAssay (NCI)
